Data set [1] has as its system C57BL/6J male mice. As to the kind of experiment: Reference Example: mice fed high-fat feed with 3.0% L-threonine for eight weeks. The class given is in vivo. The procedure: Twenty C57BL/6J male mice (eight-weeks old, available from CLEA Japan, Inc.) were fed with CRF-1 powder (available from Oriental Yeast Co., Ltd.) during one-week acclimation period. The mice were then subjected to an experiment at the beginning of nine-weeks old.
The weight of feed intake by the individual mouse was measured, and the amount of energy intake (i.e., kilocalories) was calculated according to the feed from the energy value corresponding to 1 g of each experimental feed. After the eight-weeks' experiment by feeding with the respective experimental diets, the mice were subjected to autopsy to determine their body weight, and the weight of fat tissue sincluding the peri-epididymal fat, peri-renal fat, and mesenteric fat.

Data set [2] deals with C57BL/6J male mice. Nature of the data set: Experimental Example 1: mice fed high-fat feed with added amino acids for eight weeks. The class given is in vivo. Conditions: compared with HF feed, 2.0% single amino acid or 1.0%+1.0% in high-fat feed; for body weight of mice at autopsy: FIG. 1; for weight of fat tissue of mice at autopsy (accumulation of body fat): FIG. 2. The method, then: Forty C57BL/6J male mice (eight-weeks old, available from CLEA Japan, Inc.) were fed with CRF-1 powder (available from Oriental Yeast Co., Ltd.) during one-week acclimation period. The mice were then subjected to an experiment at the beginning of nine-weeks old. […] The weight of feed intake was individually measured, and the amount of energy intake was calculated from the energy value corresponding to 1 g of each experimental feed. After the eight-weeks' experiment by feeding with the respective experimental diets, the mice were subjected to autopsy to determine their body weight, and total fat weight including the peri-epididymal fat, peri-renal fat, mesenteric fat, and subcutaneous fat around the femurs.

Molecules are shown by their SMILES.

Regarding `C[C@@H](O)[C@H](N)C(=O)O` [threonine, L-threonine], in the data set on C57BL/6J male mice [1] (3.0% L-threonine, FIG. 15), the “amount of energy intake during the feeding period” value was “not decreased”. In the data set on C57BL/6J male mice [1] (compared with HF feed, 3.0% L-threonine (group 3T), FIG. 13), the “body weight of mice at autopsy” value is reported as “decreased”. The “weight of fat tissue at autopsy” value in the data set with C57BL/6J male mice [1] (compared with HF feed, 3.0% L-threonine (group 3T), FIG. 14) is on record as “decreased”. In addition, in the data set on C57BL/6J male mice [2], the “body weight of mice at autopsy” value was “not decreased” and the “weight of fat tissue of mice at autopsy (accumulation of body fat)” value is listed as “not decreased”.
`CC(C)C[C@H](N)C(=O)O` [leucine, L-leucine]: in the data set with C57BL/6J male mice [2], the “body weight of mice at autopsy” value is listed as “not decreased” and the “weight of fat tissue of mice at autopsy (accumulation of body fat)” value is “not decreased”.

Values taken from patent publication US20080058264A1, “AMINO-ACID CONTAINING COMPOSITION FOR INHIBITING ACCUMULATION OF FAT” (AJINOMOTO CO. INC, priority 2006, published 2008).
